Measurements reported in paper PMC9635468, “Biological evaluation, docking studies, and in silico ADME prediction of some pyrimidine and pyridine derivatives as potential EGFR^WT and EGFR^T790M inhibitors” (Journal of Enzyme Inhibition and Medicinal Chemistry, 2022).
≈ marks a conversion by molar mass, not a printed value.

Legend:
FADU = experiment: Cytotoxicity screening, SRB assay, FADU; type: cell-based, human; conditions: Homo sapiens, FaDu, 48 h
Procedure: (§1) In this study, a panel of cell lines was examined for their chemosensitivity. Different concentrations of the synthesised pyridines and pyrimidine derivatives were used in this study (5, 12.5, 25, and 50 µg/mL) for all the examined cell lines. In this study, breast tumour cell line (MCF7), hepatocellular carcinoma cell line (HEPG2), larynx cell line (HEP2), lung cancer cell line (H460), colon cancer cell line (HCT116 and Caco2), hypopharyngeal cell line (FADU), and normal Vero cell line were applied. The full methodology is described in the Supplementary data (SI 1).
(§2) SI 1: Cytotoxicity screening against human cancer cell lines
(§3) In this study, a panel of cell lines was examined for their chemosensitivity. Different concentrations of the synthesized pyridines and pyrimidines derivatives were used in this study (5, 12.5, 25, and 50 µg/ml) for all the examined cell lines. The most sensitive cell line to the treatment regimen was selected and subjected to further investigations to explore the mechanism of this interaction. Human breast tumor cell line (MCF7), human hepatocellular carcinoma cell line (HEPG2), human larynx cell line (HEP2), human lung cancer cell line (H460), human colon cancer cell line (HCT116 and Caco2), human hypopharyngeal cell line (FaDu), and normal cell line Vero were used in this study. It was obtained from the American Type Culture Collection (ATCC, Minnesota, USA). The tumor cell line was maintained at National Cancer Institute (NCI), Cairo, Egypt.
(§4) The antitumor activities of pyridines and pyrimidines derivatives and all tested cell lines were evaluated by sulphorhodamine-B (SRB) assay 1. Briefly, cells were seeded at a density of 3 × 10^3 cells/well in 96-well microtiter plates. They were left to attach for 24 h before incubation with drugs. Next, cells were treated with different concentrations of 5, 12.5, 25, and 50 µg/ml for MCF7, HEPG2, HEP2, HCT116, Caco2, H460, FaDu, and Vero cells. For each concentration, three wells were used and incubation was continued for 48 h. DMSO was used as a control vehicle (1 % v/v). At the end of incubation, cells were fixed with 20 % trichloroacetic acid and stained with 0.4 % SRB dye. The optical density (O.D.) of each well was measured spectrophotometrically at 570 nm using an ELISA microplate reader (TECAN sunrise™, Germany). The mean survival fraction at each drug concentration was calculated as follows: […]
(§5) O.D. of the treated cells/O.D. of the control cells. The IC50 (concentration that produces 50% of cell growth inhibition) value of each drug was calculated using sigmoidal dose-response curve-fitting models (Graph Pad Prizm software, version 5) 1.

T47D = experiment: Cytotoxicity screening, SRB assay, T47D; type: cell-based, human; conditions: Homo sapiens, T47D, 48 h
CaCo2 = experiment: Cytotoxicity screening, SRB assay, CaCo2; type: cell-based, human; conditions: Homo sapiens, Caco-2, 48 h
Procedure: as §1, §2, §3, §4, §5

HCT116 = experiment: Cytotoxicity screening, SRB assay, HCT116; type: cell-based, human; conditions: Homo sapiens, HCT-116, 48 h
Procedure: as §1, §2, §3, §4, §5

VERO = experiment: Cytotoxicity screening, SRB assay, normal Vero cells; type: cell-based; conditions: Chlorocebus sabaeus, Vero, 48 h, normal cell line
Procedure: as §1, §2, §3, §4, §5

MCF7 = experiment: Cytotoxicity screening, SRB assay, MCF7; type: cell-based, human; conditions: Homo sapiens, MCF7, 48 h
Procedure: as §1, §2, §3, §4, §5

H460 = experiment: Cytotoxicity screening, SRB assay, H460; type: cell-based, human; conditions: Homo sapiens, NCI-H460, 48 h
Procedure: as §1, §2, §3, §4, §5

HEPG2 = experiment: Cytotoxicity screening, SRB assay, HEPG2; type: cell-based, human; conditions: Homo sapiens, HepG2, 48 h
Procedure: as §1, §2, §3, §4, §5

HEP2 = experiment: Cytotoxicity screening, SRB assay, HEP2; type: cell-based, human; conditions: Homo sapiens, HEp-2, 48 h
Procedure: as §1, §2, §3, §4, §5

NF-kB = system: NF-kB; set-up: method as in PMID 25108361; conditions: inhibitory potential against NF-kB; cited from earlier work
PI3Kd = system: PI3Kd; set-up: method as in PMID 29631787; conditions: inhibitory potential against PI3Kd; cited from earlier work

Row | Compound | IC50 (FADU) | IC50 (T47D) | IC50 (CaCo2) | IC50 (HCT116) | IC50 (VERO) | IC50 (MCF7) | IC50 (H460) | IC50 (HEPG2) | IC50 (HEP2) | IC50 (NF-kB) | IC50 (PI3Kd)
1 | c1coc(-c2cc(-c3cccs3)n3cnnc3n2)c1 [Compound 9] | 19.6 µg/mL (≈ 73.1 µM) | 11.5 µg/mL (≈ 42.9 µM) | 23.5 µg/mL (≈ 87.6 µM) | 24.3 µg/mL (≈ 90.6 µM) | 32.5 µg/mL (≈ 121 µM) | 17.2 µg/mL (≈ 64.1 µM) | 43.2 µg/mL (≈ 161 µM) | 18.5 µg/mL (≈ 69 µM) | 14.7 µg/mL (≈ 54.8 µM) | – | –
2 | Cc1cnc2[nH]nc(N)c2c1-c1ccccc1 [Compound VI] | – | – | – | – | – | – | – | – | – | 39.8 µM | –
3 | c1coc(-c2cc(-c3cccs3)n3nnnc3n2)c1 [Compound 10] | 4.5 µg/mL (≈ 16.7 µM) | 18.2 µg/mL (≈ 67.6 µM) | – | 33.3 µg/mL (≈ 124 µM) | 28.5 µg/mL (≈ 106 µM) | 18.7 µg/mL (≈ 69.4 µM) | 2.9 µg/mL (≈ 10.8 µM) | 7.3 µg/mL (≈ 27.1 µM) | 22.8 µg/mL (≈ 84.7 µM) | – | –
4 | Nc1nn2c(-c3cccs3)cc(-c3ccco3)nc2c1/N=N/c1ccc([N+](=O)[O-])cc1 [Compound 7] | 8.3 µg/mL (≈ 19.2 µM) | 44.5 µg/mL (≈ 103 µM) | 21.5 µg/mL (≈ 49.8 µM) | 15 µg/mL (≈ 34.8 µM) | 12 µg/mL (≈ 27.8 µM) | 13.7 µg/mL (≈ 31.8 µM) | 3.7 µg/mL (≈ 8.58 µM) | 12 µg/mL (≈ 27.8 µM) | 35.2 µg/mL (≈ 81.6 µM) | – | –
5 | Clc1nc(-c2ccco2)cc(-c2cccs2)c1-c1nnn[nH]1 [Compound 16] | 9 µg/mL (≈ 27.3 µM) | 8.9 µg/mL (≈ 27 µM) | 18.2 µg/mL (≈ 55.2 µM) | 27 µg/mL (≈ 81.9 µM) | 4.5 µg/mL (≈ 13.6 µM) | 21 µg/mL (≈ 63.7 µM) | 19.4 µg/mL (≈ 58.8 µM) | 9.7 µg/mL (≈ 29.4 µM) | 31 µg/mL (≈ 94 µM) | – | –
6 | CCOC(=O)COc1nc(-c2ccco2)cc(-c2cccs2)c1C#N [Compound 18] | 22 µg/mL (≈ 62.1 µM) | 25.5 µg/mL (≈ 72 µM) | 23.5 µg/mL (≈ 66.3 µM) | 36.7 µg/mL (≈ 104 µM) | 24.5 µg/mL (≈ 69.1 µM) | 21.5 µg/mL (≈ 60.7 µM) | 25 µg/mL (≈ 70.5 µM) | 9 µg/mL (≈ 25.4 µM) | 23 µg/mL (≈ 64.9 µM) | – | –
7 | N#Cc1c(-c2cccs2)cc(-c2ccco2)nc1OCC(=O)N/N=C/c1ccc([N+](=O)[O-])cc1 [Compound 20] | 8.5 µg/mL (≈ 18 µM) | 49.5 µg/mL (≈ 105 µM) | 41.5 µg/mL (≈ 87.7 µM) | 24.7 µg/mL (≈ 52.2 µM) | 10.5 µg/mL (≈ 22.2 µM) | 12.2 µg/mL (≈ 25.8 µM) | 11.3 µg/mL (≈ 23.9 µM) | 11.5 µg/mL (≈ 24.3 µM) | 31 µg/mL (≈ 65.5 µM) | – | –
8 | C1=C(c2ccco2)n2c(nc3ccccc32)SC1c1cccs1 (stereo not shown) [Compound 11] | 18.2 µg/mL (≈ 54.1 µM) | 19.5 µg/mL (≈ 58 µM) | 24.8 µg/mL (≈ 73.7 µM) | 42 µg/mL (≈ 125 µM) | 24 µg/mL (≈ 71.3 µM) | 15.9 µg/mL (≈ 47.3 µM) | 4.3 µg/mL (≈ 12.8 µM) | 18.5 µg/mL (≈ 55 µM) | 19.5 µg/mL (≈ 58 µM) | – | –
9 | COc1ncc(-c2cc(O[C@@H]3CCN(C(=O)C4CCOCC4)C3)c3cnn(C)c3n2)cc1NS(C)(=O)=O [Compound II] | – | – | – | – | – | – | – | – | – | – | 5.3 nM
